From PMC3465710 (Biochemistry, 2011)
“And” between values parts separate entries of the source, which are not always exact repeats. Identical values can stand only once. Like-named read-outs stand apart in the source and are kept apart here. Each block holds one compound with its values, some of them ahead of it.

Key:
GLUT1 [1] = target: T1, GLUT1 (Homo sapiens, UniProt P11166); type: binding; conditions: for β (cooperativity parameter, second inhibitor molecule) / γ (hetero-cooperativity parameter) / Inhibition (type of modulation of CB binding) / Ki: 50 nM [3H]-CB; for β (cooperativity parameter, second inhibitor molecule) / γ (hetero-cooperativity parameter): eqn 6; for Inhibition (type of modulation of CB binding): competing ligand 0 to 100 μM; for α (homo-cooperativity factor): CB inhibition of [3H]-CB binding; for ΔG°: calculated as RT ln(1/KI); for β*γ: product
T1 sequence (P11166 1-492): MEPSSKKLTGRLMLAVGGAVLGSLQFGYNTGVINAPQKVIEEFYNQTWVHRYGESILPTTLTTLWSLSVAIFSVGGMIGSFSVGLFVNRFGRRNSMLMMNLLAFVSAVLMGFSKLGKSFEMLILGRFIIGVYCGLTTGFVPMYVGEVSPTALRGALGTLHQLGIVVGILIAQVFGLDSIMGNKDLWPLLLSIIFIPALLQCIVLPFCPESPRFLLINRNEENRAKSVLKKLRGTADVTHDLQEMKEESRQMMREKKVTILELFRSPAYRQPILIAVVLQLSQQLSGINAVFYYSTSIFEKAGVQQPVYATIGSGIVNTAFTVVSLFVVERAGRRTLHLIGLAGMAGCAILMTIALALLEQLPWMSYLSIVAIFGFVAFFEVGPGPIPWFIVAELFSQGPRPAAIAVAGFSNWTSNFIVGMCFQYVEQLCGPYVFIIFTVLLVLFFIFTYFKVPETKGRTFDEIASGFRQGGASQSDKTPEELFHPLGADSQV

[2] = system: [3H]-CB binding to red cell membranes; conditions: cited from earlier work
GLUT1 [3] = target: T1, GLUT1; conditions: 4°C; cited from earlier work
[4] = target: T2, GLUT1-mediated sugar transport in red cells (Homo sapiens, UniProt P11166); assay: Zero-trans 3-O-methylglucose uptake in red cells; type: cell-based
T2 sequence (P11166 1-492): T1 sequence (P11166 1-492)

[5] = target: T2, GLUT1-mediated sugar transport in red cells; assay: Equilibrium exchange 3-O-methylglucose uptake in red cells; type: cell-based
GLUT1 [6] = target: T1, GLUT1
GLUT1 [7] = target: T1, GLUT1; assay: biochemical
[8] = Ki (affinity of unoccupied GLUT1 for ligand), 4°C, eqn 6, iterative free [I]
[9] = Ki, eqn 6, values in text or legends

Structure (SMILES): C=C1[C@@H](C)[C@H]2[C@H](Cc3ccccc3)NC(=O)[C@]23OC(=O)/C=C/[C@H](O)CCC[C@@H](C)C/C=C/[C@H]3[C@@H]1O [CCB, Cytochalasin B]
β (cooperativity parameter, second inhibitor molecule) (GLUT1 [1]; 4°C): 6.284 ± 3.849 | γ (hetero-cooperativity parameter) (GLUT1 [1]; 4°C): 6.284 ± 3.849 | β (cooperativity parameter, second inhibitor molecule) (GLUT1 [1]; 4°C, listed as CB): 6.3 | γ (hetero-cooperativity parameter) (GLUT1 [1]; 4°C, listed as CB): 6.3 | Inhibition (type of modulation of CB binding) (GLUT1 [1]): 1 | α (homo-cooperativity factor) (GLUT1 [1]; 4°C): 6.284 ±3.849 | α (homo-cooperativity factor) (GLUT1 [1]; 4°C, listed as CB): 6.284 ± 0.558 | ΔG° (GLUT1 [1]): -8.88 kcal/mol | α (GLUT1 [1]; fit versus measured free CB): 5.441 ± 0.558 | α (GLUT1 [1]; fit versus simulated free CB): 7.01 ± 0.53 | α (GLUT1 [1]; fit versus total CB): 10.0 ± 1.0 | β*γ (GLUT1 [1]): 39 | inhibition of CB binding [2]: high affinity | time constant of binding to GLUT1 (GLUT1 [3]): 1 s

Structure (SMILES): C[C@H]1C/C=C/[C@H]2[C@@H]3O[C@]3(C)[C@@H](C)[C@H]3[C@H](Cc4ccccc4)NC(=O)[C@]32OC(=O)O/C=C/[C@@](C)(O)C1=O [CCE, Cytochalasin E]
β (cooperativity parameter, second inhibitor molecule) (GLUT1 [1]; 4°C): 7917 ± 2935 | γ (hetero-cooperativity parameter) (GLUT1 [1]; 4°C): 0.555 ± 0.016 | Inhibition (type of modulation of CB binding) (GLUT1 [1]): 3 | Kd (GLUT1 [1]; KL (Table 2, taken from Table 1), cytochalasins, rounded values): 100 nM | Ki (GLUT1 [1]; [8]): 99 ± 8 nM | Ki (GLUT1 [1]; [9]): 100 nM | ΔG° (GLUT1 [1]): -8.88 kcal/mol | ΔΔG° (GLUT1 [1]; change in ΔG° relative to baseline cytochalasin or forskolin): 0.01 kcal/mol | β*γ (GLUT1 [1]): 4394 | Ki ([2]; read-out: Ki(app) for inhibition of [3H]-CB binding, red cell membranes): ≥ 100000 nM

β (cooperativity parameter, second inhibitor molecule) (GLUT1 [1]; 4°C): 1.54 ± 0.73 | γ (hetero-cooperativity parameter) (GLUT1 [1]; 4°C): 0.93 ± 0.10 and 0.930 ± 0.103 and 0.9 | γ (hetero-cooperativity parameter) (GLUT1 [1]; 4°C, listed as forskolin): 0.93 | Inhibition (type of modulation of CB binding) (GLUT1 [1]): 1 | Ki (GLUT1 [1]; [8]): 3280 ± 960 nM | Ki (GLUT1 [1]; [9]): 3280 ± 980 nM | ΔG° (GLUT1 [1]): -6.95 kcal/mol | β*γ (GLUT1 [1]): 1 | Ki [4]: 1900 ± 400 nM | mode of inhibition of net sugar uptake ([4]; human erythrocytes): noncompetitive inhibitor | Kmapp for 3MG uptake in presence of inhibitor ([4]; zero-trans, 2 μM FSK): 1.09 ± 0.15 mM | Vmax for 3MG uptake in presence of inhibitor ([4]; zero-trans, 2 μM FSK): 0.055 ± 0.004 mM/L/min | Ki [5]: 1200 ± 600 nM | Kmapp for 3MG uptake in presence of inhibitor ([5]; equilibrium exchange, 2 μM FSK): 48.5 ± 7.3 mM | Vmax for 3MG uptake in presence of inhibitor ([5]; equilibrium exchange, 2 μM FSK): 8.3 ± 0.7 mM/L/min | mode of inhibition of exchange sugar uptake ([5]; human erythrocytes): competitive inhibitor | Kd for forskolin binding relative to Kd for CB binding (GLUT1 [6]): at least 20 fold | α (homo-cooperativity factor) (GLUT1 [6]; FSK inhibition of [3H]-FSK binding, 4°C): 2.43 ± 0.23 | α (GLUT1 [6]; fit versus measured free FSK): 2.400 ± 0.212 | α (GLUT1 [6]; fit versus simulated free FSK): 2.434 ± 0.235 | α (GLUT1 [6]; fit versus total FSK): 2.383 ± 2.116 | Kd (GLUT1 [7]; KL, FSK inhibition of [3H]-FSK binding (50 nM), 4°C, eqn 7, assumes α = β = γ): 2750 ± 787 nM | Kd (GLUT1 [7]; Kl, fit versus measured free FSK): 2830 ± 754 nM | Kd (GLUT1 [7]; Kl, fit versus total FSK): 3330 ± 893 nM
Structure (SMILES): C=C[C@@]1(C)CC(=O)[C@]2(O)[C@@]3(C)[C@@H](O)CCC(C)(C)[C@@H]3[C@H](O)[C@H](OC(C)=O)[C@@]2(C)O1 [FSK, forskolin]
